Source: article PMC11864979, “First-in-class ultralong-target-residence-time p38α inhibitors as a mitosis-targeted therapy for colorectal cancer” (Nature Cancer, 2025)
Like-named read-outs stand apart in the source and are kept apart here.

Legend:
Test in all cases: selectivity profiling in a panel of 340 wild-type kinases (Reaction Biology Europe)
Assay type in all cases: binding
340 wild-type kinases [1] = target: T1, 340 wild-type kinases (Homo sapiens, UniProt Q9P286)
T1 construct: purchased Reaction Biology Europe

340 wild-type kinases [2] = target: T2, 340 wild-type kinases (Homo sapiens, UniProt P33981)
T2 construct: purchased Reaction Biology Europe
T2 sequence (P33981 1-857): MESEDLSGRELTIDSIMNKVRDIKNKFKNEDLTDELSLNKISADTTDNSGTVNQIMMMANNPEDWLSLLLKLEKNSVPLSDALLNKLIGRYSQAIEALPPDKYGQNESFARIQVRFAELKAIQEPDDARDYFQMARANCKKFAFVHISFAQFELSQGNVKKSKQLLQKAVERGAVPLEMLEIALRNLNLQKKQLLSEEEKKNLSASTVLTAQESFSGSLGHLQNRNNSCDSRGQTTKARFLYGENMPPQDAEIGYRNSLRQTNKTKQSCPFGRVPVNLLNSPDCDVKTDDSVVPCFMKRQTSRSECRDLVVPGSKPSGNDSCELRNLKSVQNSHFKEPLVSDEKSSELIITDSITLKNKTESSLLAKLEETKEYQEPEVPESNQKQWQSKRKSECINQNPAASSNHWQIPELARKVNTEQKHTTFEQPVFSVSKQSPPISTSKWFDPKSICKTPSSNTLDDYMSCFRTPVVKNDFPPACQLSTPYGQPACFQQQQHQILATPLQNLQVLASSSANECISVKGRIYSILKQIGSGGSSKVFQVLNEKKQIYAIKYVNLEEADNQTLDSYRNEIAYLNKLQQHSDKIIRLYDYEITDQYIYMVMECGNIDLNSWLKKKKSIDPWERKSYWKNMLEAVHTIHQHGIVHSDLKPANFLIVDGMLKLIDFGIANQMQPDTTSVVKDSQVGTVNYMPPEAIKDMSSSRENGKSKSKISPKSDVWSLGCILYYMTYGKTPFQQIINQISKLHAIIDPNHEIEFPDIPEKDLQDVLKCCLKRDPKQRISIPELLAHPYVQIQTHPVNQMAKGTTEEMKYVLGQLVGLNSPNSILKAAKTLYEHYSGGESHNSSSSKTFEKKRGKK

340 wild-type kinases [3] = target: T3, 340 wild-type kinases (Homo sapiens, UniProt P52564, S207D/T211D)
T3 construct: purchased Reaction Biology Europe
T3 sequence (P52564 1-334 S207D/T211D): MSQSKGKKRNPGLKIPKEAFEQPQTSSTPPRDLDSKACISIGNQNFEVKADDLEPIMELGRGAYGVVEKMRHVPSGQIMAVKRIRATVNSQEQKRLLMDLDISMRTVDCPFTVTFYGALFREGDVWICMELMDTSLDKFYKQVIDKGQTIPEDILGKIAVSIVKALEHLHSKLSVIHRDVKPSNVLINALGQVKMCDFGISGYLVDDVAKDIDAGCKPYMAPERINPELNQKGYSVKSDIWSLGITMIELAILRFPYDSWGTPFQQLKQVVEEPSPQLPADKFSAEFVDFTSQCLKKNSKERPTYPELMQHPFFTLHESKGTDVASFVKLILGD

340 wild-type kinases [4] = target: T4, 340 wild-type kinases (Homo sapiens, UniProt P04049, Y340D/Y341D); settings: read-out: RAF1 YDYD residual activity
T4 construct: purchased Reaction Biology Europe

340 wild-type kinases [5] = target: T5, 340 wild-type kinases (Homo sapiens, UniProt P49137)
T5 construct: purchased Reaction Biology Europe

340 wild-type kinases [6] = target: T6, 340 wild-type kinases (Homo sapiens, UniProt Q07002)
T6 construct: purchased Reaction Biology Europe

340 wild-type kinases [7] = target: T7, 340 wild-type kinases (Homo sapiens, UniProt P36897)
T7 construct: purchased Reaction Biology Europe
T7 sequence (P36897 34-503): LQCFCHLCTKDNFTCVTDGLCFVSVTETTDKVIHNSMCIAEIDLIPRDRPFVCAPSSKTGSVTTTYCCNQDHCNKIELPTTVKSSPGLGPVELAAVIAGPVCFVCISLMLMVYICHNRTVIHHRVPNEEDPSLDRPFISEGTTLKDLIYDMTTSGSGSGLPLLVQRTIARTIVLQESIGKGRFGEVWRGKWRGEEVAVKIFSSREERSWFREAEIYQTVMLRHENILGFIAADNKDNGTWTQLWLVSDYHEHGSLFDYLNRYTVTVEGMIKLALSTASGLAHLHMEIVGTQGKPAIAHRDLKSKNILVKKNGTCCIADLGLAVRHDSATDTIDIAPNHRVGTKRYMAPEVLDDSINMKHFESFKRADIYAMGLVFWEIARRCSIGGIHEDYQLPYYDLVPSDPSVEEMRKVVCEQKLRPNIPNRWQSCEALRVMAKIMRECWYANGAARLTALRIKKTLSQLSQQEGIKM

T1 sequence (Q9P286 whole entry): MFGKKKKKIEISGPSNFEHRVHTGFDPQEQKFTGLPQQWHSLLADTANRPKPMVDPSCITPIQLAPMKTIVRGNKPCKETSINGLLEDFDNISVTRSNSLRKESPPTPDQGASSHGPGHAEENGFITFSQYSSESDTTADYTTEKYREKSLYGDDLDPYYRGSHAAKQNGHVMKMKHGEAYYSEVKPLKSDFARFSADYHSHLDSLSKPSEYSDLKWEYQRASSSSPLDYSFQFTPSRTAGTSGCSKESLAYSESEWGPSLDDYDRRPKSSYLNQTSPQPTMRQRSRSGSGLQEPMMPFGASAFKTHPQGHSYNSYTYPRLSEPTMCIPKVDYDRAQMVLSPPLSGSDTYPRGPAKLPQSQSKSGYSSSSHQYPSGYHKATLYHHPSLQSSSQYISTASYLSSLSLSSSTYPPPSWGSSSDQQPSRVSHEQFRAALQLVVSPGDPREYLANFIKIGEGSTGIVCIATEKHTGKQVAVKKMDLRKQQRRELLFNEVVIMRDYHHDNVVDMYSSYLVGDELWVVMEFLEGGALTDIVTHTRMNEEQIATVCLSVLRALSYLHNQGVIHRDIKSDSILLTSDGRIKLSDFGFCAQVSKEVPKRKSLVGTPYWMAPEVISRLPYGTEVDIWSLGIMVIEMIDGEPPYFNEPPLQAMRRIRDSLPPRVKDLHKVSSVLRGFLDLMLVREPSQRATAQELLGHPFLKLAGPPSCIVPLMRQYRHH
T6 sequence (Q07002 whole entry): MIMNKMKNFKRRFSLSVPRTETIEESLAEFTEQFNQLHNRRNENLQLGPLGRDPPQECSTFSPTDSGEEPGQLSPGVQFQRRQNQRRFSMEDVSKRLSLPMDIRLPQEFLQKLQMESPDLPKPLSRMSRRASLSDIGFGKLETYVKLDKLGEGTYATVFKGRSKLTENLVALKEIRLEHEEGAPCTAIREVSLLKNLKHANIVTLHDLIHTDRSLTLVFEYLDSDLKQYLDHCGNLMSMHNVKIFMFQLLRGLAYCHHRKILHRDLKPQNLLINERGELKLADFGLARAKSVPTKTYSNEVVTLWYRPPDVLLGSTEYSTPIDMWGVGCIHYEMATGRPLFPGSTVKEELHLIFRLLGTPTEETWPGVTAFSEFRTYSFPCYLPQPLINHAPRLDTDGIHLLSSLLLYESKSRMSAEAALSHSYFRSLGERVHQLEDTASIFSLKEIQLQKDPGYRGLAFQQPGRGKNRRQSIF
T5 sequence (P49137 whole entry): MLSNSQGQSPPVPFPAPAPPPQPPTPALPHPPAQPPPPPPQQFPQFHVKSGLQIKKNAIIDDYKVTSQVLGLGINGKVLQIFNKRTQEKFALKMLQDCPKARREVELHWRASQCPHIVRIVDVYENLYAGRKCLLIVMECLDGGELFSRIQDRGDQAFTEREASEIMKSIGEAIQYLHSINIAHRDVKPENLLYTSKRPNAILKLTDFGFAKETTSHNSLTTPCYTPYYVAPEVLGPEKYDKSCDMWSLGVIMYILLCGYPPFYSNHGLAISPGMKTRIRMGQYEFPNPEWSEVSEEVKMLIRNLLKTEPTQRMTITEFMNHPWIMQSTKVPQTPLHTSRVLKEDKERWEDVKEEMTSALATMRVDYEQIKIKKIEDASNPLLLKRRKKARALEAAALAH
T4 sequence (P04049 whole entry Y340D/Y341D): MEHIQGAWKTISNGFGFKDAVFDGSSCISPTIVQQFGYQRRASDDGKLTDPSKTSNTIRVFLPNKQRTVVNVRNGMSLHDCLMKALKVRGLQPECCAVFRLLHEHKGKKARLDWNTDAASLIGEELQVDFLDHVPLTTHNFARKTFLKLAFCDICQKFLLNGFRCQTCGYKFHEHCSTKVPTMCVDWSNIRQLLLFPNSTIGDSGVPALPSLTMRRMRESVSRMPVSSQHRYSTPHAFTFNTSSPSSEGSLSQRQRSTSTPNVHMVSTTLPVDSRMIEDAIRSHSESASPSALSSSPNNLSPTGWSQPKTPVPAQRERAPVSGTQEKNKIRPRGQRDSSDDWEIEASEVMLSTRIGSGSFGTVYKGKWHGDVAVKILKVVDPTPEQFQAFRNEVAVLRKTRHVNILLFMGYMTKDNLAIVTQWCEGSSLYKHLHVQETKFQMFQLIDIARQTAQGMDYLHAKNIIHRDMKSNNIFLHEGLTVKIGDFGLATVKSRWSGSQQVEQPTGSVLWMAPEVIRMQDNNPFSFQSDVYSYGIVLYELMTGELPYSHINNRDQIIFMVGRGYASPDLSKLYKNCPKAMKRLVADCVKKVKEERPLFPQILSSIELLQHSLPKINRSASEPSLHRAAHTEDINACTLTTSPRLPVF

Q: Which results are given for CNC(=O)c1ccc2c(c1)C(=O)c1ccc(Nc3ccc(F)c(NC(=O)C4CC4)c3)cc1CC2 [Compound 2015]?
A: remaining activity at 0.2 µM (340 wild-type kinases [1]; 0.2 µM 2015, read-out: PAK7 residual activity): 97.1%; remaining activity at 1 µM (340 wild-type kinases [1]; 1 µM 2015, read-out: PAK7 residual activity): 84.3%; remaining activity at 0.2 µM (340 wild-type kinases [1]; PAK7, 0.2 µM, read-out: residual activity): 97.1%; remaining activity at 1 µM (340 wild-type kinases [1]; PAK7, 1 µM, read-out: residual activity): 84.3%; remaining activity at 0.2 µM (340 wild-type kinases [2]; 0.2 µM 2015, read-out: TTK residual activity): 95.3%; remaining activity at 1 µM (340 wild-type kinases [2]; 1 µM 2015, read-out: TTK residual activity): 90.4%; remaining activity at 0.2 µM (340 wild-type kinases [2]; TTK, 0.2 µM, read-out: residual activity): 95.3%; remaining activity at 1 µM (340 wild-type kinases [2]; TTK, 1 µM, read-out: residual activity): 90.4%; remaining activity at 0.2 µM (340 wild-type kinases [3]; 0.2 µM 2015, read-out: MKK6 SDTD residual activity): 83.9%; remaining activity at 1 µM (340 wild-type kinases [3]; 1 µM 2015, read-out: MKK6 SDTD residual activity): 111%; remaining activity at 0.2 µM (340 wild-type kinases [3]; MKK6 SDTD, 0.2 µM, read-out: residual activity): 83.9%; remaining activity at 1 µM (340 wild-type kinases [3]; MKK6 SDTD, 1 µM, read-out: residual activity): 111%; remaining activity at 0.2 µM (340 wild-type kinases [4]; 0.2 µM 2015): 80.3%; remaining activity at 1 µM (340 wild-type kinases [4]; 1 µM 2015): 88.8%; remaining activity at 0.2 µM (340 wild-type kinases [5]; 0.2 µM 2015, read-out: MAPKAPK2 residual activity): 153%; remaining activity at 1 µM (340 wild-type kinases [5]; 1 µM 2015, read-out: MAPKAPK2 residual activity): 118%; remaining activity at 0.2 µM (340 wild-type kinases [5]; MAPKAPK2, 0.2 µM, read-out: residual activity): 153%; remaining activity at 1 µM (340 wild-type kinases [5]; MAPKAPK2, 1 µM, read-out: residual activity): 118%; remaining activity at 0.2 µM (340 wild-type kinases [6]; 0.2 µM 2015, read-out: CDK18/CycY residual activity): 102%; remaining activity at 1 µM (340 wild-type kinases [6]; 1 µM 2015, read-out: CDK18/CycY residual activity): 92.8%; remaining activity at 0.2 µM (340 wild-type kinases [6]; CDK18/CycY, 0.2 µM, read-out: residual activity): 102%; remaining activity at 1 µM (340 wild-type kinases [6]; CDK18/CycY, 1 µM, read-out: residual activity): 92.8%; remaining activity at 0.2 µM (340 wild-type kinases [7]; 0.2 µM 2015, read-out: TGFBR1 residual activity): 84.1%; remaining activity at 1 µM (340 wild-type kinases [7]; 1 µM 2015, read-out: TGFBR1 residual activity): 90.9%; remaining activity at 0.2 µM (340 wild-type kinases [7]; TGFBR1, 0.2 µM, read-out: residual activity): 84.1%; remaining activity at 1 µM (340 wild-type kinases [7]; TGFBR1, 1 µM, read-out: residual activity): 90.9%
